Assay results: US11912693B2, “Compounds for modulating S1P1 activity and methods of using the same” (TREVENA, INC., priority 2017, dated 2024)

Columns and labels:
[1] = molecular target: human sphingosine-1-phosphate receptor 1 (S1P1) (Homo sapiens (Human), UniProt P21453); assay: Inhibition of cAMP production (HTRF cAMP HiRange), S1P1 CHO-K1 cells; type: cell-based; settings: for Emax: CHO-K1, efficacy (SPAN) normalized to fingolimod, read-out: hS1P1 cAMP SPAN; for hS1P1 cAMP pEC50: inhibition of cAMP production, S1P1 CHO-K1 cells
Method in brief: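 CHO-K1 cells stably co-expressing human S1P1 (C-terminal Prolink tag) and EA-β-arrestin2 were grown in AssayComplete Media 6 at 37° C. and 5% CO2, plated, and incubated overnight. Agonist-driven inhibition of intracellular cAMP was read by TR-FRET with the HTRF cAMP HiRange kit on a PheraStar reader. Potency is pEC50, and efficacy (SPAN) is normalized to fingolimod.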

[2] = test system: paclitaxel induced peripheral neuropathy; assay: Reversal of allodynia induced by paclitaxel in mice (s.c. or p.o., von Frey frequency method); type: in vivo, c57bl/6 mice; settings: Mus musculus; for inhibition in vivo at 3 mg/kg: po, 1 h, 3 mg/kg p.o., tested 60 min after dosing, read-out: Screen @ 3 mg/kg po (% MPE); for inhibition in vivo at 1 mg/kg: sc, 0.5 h, 1 mg/kg s.c., tested 30 min after dosing, read-out: Screen @ 1 mg/kg sc (% MPE)
Method in brief: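 Neuropathy was induced in mice by paclitaxel (6 mg/kg i.p., days 1, 3, 5, 7) or oxaliplatin (4 mg/kg i.p., days 1-5), with re-testing about 14 days later. Compounds were given s.c. (tested at 30 min) or p.o. (tested at 60 min; paclitaxel only). A 0.4 g von Frey filament was applied ten times per paw, and % non-response was converted to % MPE.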

[3] = test system: Freund's Complete Adjuvant induced inflammation / mechanical allodynia; assay: Tactile allodynia produced by intraplantar Freund's Complete Adjuvant in rats (Randall-Selitto); type: in vivo, rat; settings: CFA model, 24 hours after CFA
Protocol: Animals were acclimated to the vivarium for at least 48 hr prior to behavioral testing. Inflammation was induced with the administration of an intraplantar (subcutaneous injection into the plantar surface of the hind paw, i.pl.) injection of 0.10 ml Freund's Complete Adjuvant (FCA). The experiments were conducted 24 hours after CFA administration. Rats are tested for mechanical allodynia in a Randall-Selitto apparatus. The inflamed paw is put on a pedestal and a pointed force of increasing intensity (0 to 250 grams) is applied to the paw. When the animal struggles to withdraw from the force the test is stopped and the force to induce that struggle is recorded. Data is presented as mean grams of force to withdrawal or a percentage of the maximum possible effect.

[4] = molecular target: hERG channel (Homo sapiens (Human), UniProt Q12809); assay: Automated Qpatch patch-clamp hERG assay
hERG channel, sequence (Q12809 whole entry): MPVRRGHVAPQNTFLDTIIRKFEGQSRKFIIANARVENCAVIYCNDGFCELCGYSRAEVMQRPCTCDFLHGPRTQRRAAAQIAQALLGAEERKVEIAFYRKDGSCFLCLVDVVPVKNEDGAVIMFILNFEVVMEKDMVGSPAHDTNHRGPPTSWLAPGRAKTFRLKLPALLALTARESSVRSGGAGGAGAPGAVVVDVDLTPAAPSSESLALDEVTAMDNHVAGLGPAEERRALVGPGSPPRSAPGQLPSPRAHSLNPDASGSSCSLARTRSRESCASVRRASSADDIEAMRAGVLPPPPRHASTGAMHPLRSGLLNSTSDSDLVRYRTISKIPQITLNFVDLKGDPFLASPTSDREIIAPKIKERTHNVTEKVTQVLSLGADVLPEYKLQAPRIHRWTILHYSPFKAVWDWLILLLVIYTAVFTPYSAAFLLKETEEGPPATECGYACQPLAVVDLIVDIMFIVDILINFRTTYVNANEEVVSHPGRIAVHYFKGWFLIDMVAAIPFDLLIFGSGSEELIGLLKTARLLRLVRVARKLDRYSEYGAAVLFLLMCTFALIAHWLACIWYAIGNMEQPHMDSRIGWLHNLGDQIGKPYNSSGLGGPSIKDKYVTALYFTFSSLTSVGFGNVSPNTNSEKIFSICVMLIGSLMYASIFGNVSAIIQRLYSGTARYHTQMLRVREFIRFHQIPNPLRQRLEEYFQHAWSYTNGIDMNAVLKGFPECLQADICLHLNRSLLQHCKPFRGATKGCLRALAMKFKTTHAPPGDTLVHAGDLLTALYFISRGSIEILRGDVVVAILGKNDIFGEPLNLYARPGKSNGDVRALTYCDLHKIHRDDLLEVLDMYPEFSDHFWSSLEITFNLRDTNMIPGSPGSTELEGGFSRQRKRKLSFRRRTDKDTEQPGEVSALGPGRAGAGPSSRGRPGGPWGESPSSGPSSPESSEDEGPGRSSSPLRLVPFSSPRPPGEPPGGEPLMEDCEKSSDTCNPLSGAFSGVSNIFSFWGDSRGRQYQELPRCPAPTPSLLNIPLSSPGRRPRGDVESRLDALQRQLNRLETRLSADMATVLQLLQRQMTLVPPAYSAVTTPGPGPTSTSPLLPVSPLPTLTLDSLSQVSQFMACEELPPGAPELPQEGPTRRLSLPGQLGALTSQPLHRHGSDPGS

human sphingosine-1-phosphate receptor 1 (S1P1), sequence (P21453 whole entry, looked up): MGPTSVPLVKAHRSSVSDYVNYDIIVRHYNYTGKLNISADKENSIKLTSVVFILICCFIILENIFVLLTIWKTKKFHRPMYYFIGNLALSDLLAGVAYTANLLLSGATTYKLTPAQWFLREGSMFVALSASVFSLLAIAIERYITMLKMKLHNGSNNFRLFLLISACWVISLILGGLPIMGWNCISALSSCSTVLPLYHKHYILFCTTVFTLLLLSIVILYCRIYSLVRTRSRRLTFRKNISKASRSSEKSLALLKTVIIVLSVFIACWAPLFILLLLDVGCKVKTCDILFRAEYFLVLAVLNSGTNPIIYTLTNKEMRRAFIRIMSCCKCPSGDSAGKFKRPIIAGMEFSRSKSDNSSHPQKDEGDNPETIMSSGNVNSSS

SMILES | Emax [1] [%] | hS1P1 cAMP pEC50 [1] | inhibition in vivo at 3 mg/kg [2] [%] | Active Doses, mg/kg sc (>50% MPE) [3] [mg/kg] | inhibition in vivo at 1 mg/kg [2] [%] | IC50 [4] [µM]
CC(C)n1nnc2cc(-c3nc(-c4ccncc4C(F)(F)F)no3)ccc21 [Compound 455, 1-(propan-2-yl)-5-{3-[3-(trifluoromethyl)pyridin-4-yl]-1,2,4-oxadiazol-5-yl}-1H-1,2,3-benzotriazole] | > 75 | >6.5 | > 50 |  |  | 
CCC1(CC)CC(=O)c2cc(-c3nc(-c4ccncc4OC)no3)ccc2O1 [Compound 212, 2,2-diethyl-6-(3-(3-methoxypyridin-4-yl)-1,2,4-oxadiazol-5-yl)chroman-4-one] | > 75 | >6.5 |  | ≥0.1 | > 50 | 
CCC1(CC)CC(=O)c2cc(-c3nc(-c4cccnc4OC)no3)ccc2O1 [Compound 147, 2,2-diethyl-6-(3-(2-methoxypyridin-3-yl)-1,2,4-oxadiazol-5-yl)chroman-4-one] | > 75 | >6.5 |  |  | > 50 | 
Cc1ccccc1-c1nc(-c2ccc3c(c2)nnn3C(C)C)no1 [Compound 99, 3-(1-isopropyl-1H-benzo[d][1,2,3]triazol-5-yl)-5-(o-tolyl)-1,2,4-oxadiazole] |  | >6.5 | > 50 |  | > 50 | 
COc1ccccc1-c1nc(-c2ccc3c(c2)nnn3C(C)C)no1 [Compound 287, 3-(1-isopropyl-1H-benzo[d][1,2,3]triazol-5-yl)-5-(2-methoxyphenyl)-1,2,4-oxadiazole] |  | >6.5 |  |  | < 50 | 
Cc1ccccc1-c1noc(-c2ccc3c(c2)nnn3C(C)C)n1 [Compound 293, 5-[3-(2-methylphenyl)-1,2,4-oxadiazol-5-yl]-1-(propan-2-yl)-1H-1,2,3-benzotriazole] | > 75 | >6.5 |  | ≥0.1 | > 50 | 
COc1ccc(-c2noc(-c3ccc4c(c3)nnn4CC(C)(C)O)n2)c(C)c1 [Compound 26, 1-{5-[3-(4-methoxy-2-methylphenyl)-1,2,4-oxadiazol-5-yl]-1H-1,2,3-benzotriazol-1-yl}-2-methylpropan-2-ol] |  | >6.5 | < 50 | ≥0.1 | < 50 | > 10
CCC1(CC)CC(=O)c2cc(-c3nc(-c4cn[nH]c4)no3)ccc2O1 [Compound 469, 6-(3-(1H-pyrazol-4-yl)-1,2,4-oxadiazol-5-yl)-2,2-diethylchroman-4-one] | > 75 | >6.5 | > 50 | ≥0.01 |  | > 10
CC(C)n1nnc2cc(-c3nc(-c4cccc5c4OCCC5)no3)ccc21 [Compound 304, 3-chroman-8-yl-5-(1-isopropylbenzotriazol-5-yl)-1,2,4-oxadiazole] |  | >6.5 |  |  | > 50 | > 10
CCC1(CC)CC(=O)c2cc(-c3nc(-c4cccnc4)no3)ccc2O1 [Compound 103, 2,2-diethyl-6-[3-(pyridin-3-yl)-1,2,4-oxadiazol-5-yl]-3,4-dihydro-2H-1-benzopyran-4-one] | > 75 | >6.5 | > 50 | ≥0.03 | > 50 | 
